Columns and labels:
[1] = Effect of DHA derivatives on established metabolic syndrome and insulin resistance (Example 5b); format: in vivo, C57BL/6 mice
Procedure: In another experiment, PRB-2, PRB-5, and PRB-7 were tested in the same breed of animals. In this experiment, animals were initially fed high fat diet (the same as in the previous experiment 5a) for 8 weeks developing insulin resistance and the metabolic syndrome, and then given the PRBs. […] After a period of another two weeks the animals were given 1.5% of PRB-2, 5% and 1.5% of PRB-5, and 1.5% and 0.5% of PRB-7.

[2] = Analysis of intracellular free fatty acids in liver tissue (RP-HPLC MS/MS); format: in vivo, adipose prone mice of the C57BL/6J strain; details: FIG. 4; 1.5% of total fat content
Procedure: In the first block of experiments (see FIG. 2) liver tissue from animals fed PRB-1,2,5, and 7 was analysed with respect to free unesterified fatty acids. The animals were recruited from the fifth block of experiments (pharmacodynamic effects of DHA derivatives in an animal model of metabolic syndrome). The animals had been given DHA ([…] of fat content of the diet) or the DHA-derivatives (1.5% of the fat content in their diet) for 8 weeks and were supposed to be in a steady-state situation with stable levels of DHA and the DHA-derivatives intracellularily. Liver tissue was chosen due to the fact that the metabolisation rate is very high in liver.
The liver samples were homogenized in cold PBS buffer, and extracted immediately with chloroform:methanol (2:1) containing 0.2 mM butylated hydroxytoluene (BHT) using cis-10-heptadecenoic acid as internal standard. […] Total protein content was measured using Bio-Rad method after homogenization.
Agilent 1100 system was used for reverse phase column (Supelco Ascentis C18 column, 25 cm×4.6 mm, i.d. 5 μm) separation of DHA and its PRB derivatives within 22 min. […] The column elute was identified and quantified in the negative electrospray ionisation applying multiple reaction monitoring mode by triple tandem quadrapole mass/mass (ABI Qtrap-4000). […] The quadratic regression standard curve was used for quantification after internal standard calibration. […]

CC/C=C\C/C=C\C/C=C\C/C=C\C/C=C\C/C=C\CC(SCC)C(=O)OCC (stereo not drawn) [PRB-7, α-tioethyl docosahexaenoic acid ethyl ester]
plasma insulin ([1]; FIG. 15): some effects on the insulin concentration | AUC blood glucose compared to the baseline values ([1]; FIG. 16, 1.5% of PRB-2): some effect but not to the same extent | intracellular concentration of DHA in liver tissue from animals given the PRB [2]: significantly higher level

Reference: patent US7550613B2, “Compounds” (Pronova Biopharma Norge AS, priority 2005, dated 2009)
